The source of these data is paper PMC11944670, “Reshaping [^99mTc]Tc-DT11 to DT14D Tagged with Trivalent Radiometals for NTS1R-Positive Cancer Theranostics” (Pharmaceutics, 2025).

The target of this experiment is T1, human NTS1R (Homo sapiens, UniProt P30989).
T1 construct: in membrane homogenates obtained from WiDr cells; endogenous in cells; host or cells: WiDr cells (membrane homogenates)
Briefly: Competitive binding against [125I]I-Tyr3-NT in WiDr cell membrane homogenates. The following applies: displacement of [125I]I-Tyr3-NT, WiDr cell membranes, mean ± sd, n = 3. The procedure: The affinity of metal-free D[…] and metal-tagged [^natGa]Ga/[^natIn]In/[^natLu]Lu-D[…] (Supplementary Materials) for the human NTS1R was evaluated via competitive binding assays. These assays were performed using the [^125I]I-Tyr^3-NT radioligand in membrane homogenates obtained from WiDr cells, which were stored at -80 °C in 100 μL aliquots of Tris/EDTA buffer (10 mM Tris, 0.1 mM EDTA, pH 7.4). On the day of the experiment, the membrane homogenates were thawed, combined, and diluted in ice-cold binding buffer (BB: 50 mM HEPES, 5.5 mM MgCl2, 0.1 mg/mL bacitracin, 1% w/v BSA, pH 7.4). Each of the above ligands (including NT as a control) was incubated in triplicate at increasing concentrations (ranging from 10^-13 M to 10^-6 M in BB, 30 μL) with [^125I]I-Tyr^3-NT (214 pM in 70 μL BB) and membrane homogenate (300 μL in BB) for 1 h at 22 °C in an Incubator-Orbital Shaker unit (MPM Instr. SrI, Bernareggio, Milan, Italy). […] The filters were washed with ice-cold washing buffer (WB, 10 mM HEPES pH 7.4, 150 mM NaCl), collected individually, placed in separate RIA tubes, and measured for their radioactivity content in a gamma counter (automated multi-sample well-type instrument with a NaI(Tl) 3'' crystal, Canberra Packard Cobra^TM Quantum U5003/1, Auto-Gamma® counting system; Canberra Packard Central Europe GmbH, Schwadorf, Austria). […]

Residues, ends and D or L forms follow the SMILES beside them. *: point of attachment. DOTA = O=C(O)CN1CCN(CC(=O)O)CCN(CC(=O)*)CCN(CC(=O)O)CC1; X1 = Cc1ccc(CCCC(=O)NCCOCCOCCOCCOCC(=O)*)cc1; βAla = NCCC(=O)O

T1 sequence (P30989 whole entry): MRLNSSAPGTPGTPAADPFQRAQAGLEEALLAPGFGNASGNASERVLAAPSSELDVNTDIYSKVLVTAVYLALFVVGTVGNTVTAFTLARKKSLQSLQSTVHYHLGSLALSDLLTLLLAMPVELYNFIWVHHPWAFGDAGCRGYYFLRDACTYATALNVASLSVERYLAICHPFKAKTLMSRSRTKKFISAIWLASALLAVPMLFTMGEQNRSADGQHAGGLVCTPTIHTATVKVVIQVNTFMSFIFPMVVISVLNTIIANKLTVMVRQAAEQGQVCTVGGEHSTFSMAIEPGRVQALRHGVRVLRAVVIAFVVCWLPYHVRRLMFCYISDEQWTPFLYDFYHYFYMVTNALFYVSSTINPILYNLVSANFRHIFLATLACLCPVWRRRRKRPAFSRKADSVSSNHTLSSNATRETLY

For orientation: IC50 means the concentration needed to halve the response being measured. `CC[C@H](C)[C@H](NC(=O)[C@H](Cc1ccc(O)cc1)NC(=O)[C@@H]1CCCN1C(=O)[C@H](CCCNC(=N)N)NC(=O)[C@H](CCCNC(=N)N)NC(=O)[C@H](CCCCNC(=O)COCCOCCOCCOCCNC(=O)CCCc1ccc(C)cc1)NC(=O)CCNC(=O)CCNC(=O)CCNC(=O)CN1CCN(CC(=O)O)CCN(CC(=O)O)CCN(CC(=O)O)CC1)C(=O)N[C@@H](CC(C)C)C(=O)O` [DT14D, DOTA-βAla-βAla-βAla-Lys(MPBA-PEG4)^7-Arg-Arg-Pro-Tyr-Ile-Leu-OH] ({DOTA-βAla-βAla-βAla}-K(X1)RRPYIL-OH) registered an IC50 of 2.56 ± 0.26 nM.
